Twelve compounds from PubChem BioAssay AID743141 (Broad Institute, 2013) can be followed below.

Activity calls are given as the source filed them.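 The calls were made as follows: active = compounds that cut viability of the normal-p53 cell line panel with an IC50 under 10 µM; inactive = IC50 above 10 µM.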

What all share (assay): growth inhibition in A549, HCT116, IMR90 – cell-based, TP53 wild-type panel, dry powder, selectivity assay for cell-selective anticancer agent project, dose response (AID 743141)
The test system of test [1] is A549 viability, CellTiter-Glo luminescence, 48 h.
The subject of test [2] is HCT116 viability, CellTiter-Glo luminescence, 48 h.
Test [3] relates to IMR90 viability, CellTiter-Glo luminescence, 48 h.

Broadly, the IC50 is the concentration that inhibits the measured activity by half. As to `CCN1N=C(c2ccc(N(CC)CC)cc2)[C@H](C)CC1=O`, the figures for the IC50 in test [1], in test [2] and in test [3] were > 10 µM (inactive), above 10 µM and above 10 µM, respectively.

Regarding `C[C@@H]1CC(=O)NN=C1c1ccc(N2CCOCC2)c(F)c1`, the IC50 in test [1] was > 10 µM (inactive); in test [2], above 10 µM; in test [3] it was above 10 µM.

Take `C[C@H]1CC(=O)NN=C1c1ccc(N2CCOCC2)c(F)c1`: the IC50 in test [1] was > 10 µM (inactive); in test [2], above 10 µM; in test [3], above 10 µM.

Turning to `CCN(CC)c1ccc(C2=NNC(=O)CC2C)cc1[N+](=O)[O-]` (stereo unspecified), the IC50 is > 10 µM (inactive) in test [1], above 10 µM in test [2] and above 10 µM in test [3].

In the case of `COc1cc2c(cc1OC)-c1cc(=Nc3c(C)cc(C)cc3C)n(C)c(=O)n1CC2`, the values for the IC50 in test [1], in test [2] and in test [3] were > 10 µM (inactive), above 10 µM and above 10 µM, respectively.

As to `O=C1CN2Cc3c(ccc(Cl)c3Cl)N=C2N1`, the figures for the IC50 in test [1], in test [2] and in test [3] were > 10 µM (inactive), above 10 µM and above 10 µM, respectively.

In the case of `C[C@@H]1CC(=O)NN=C1c1ccc(-c2cncnc2)cc1`, the IC50 in test [1] was > 10 µM (inactive); in test [2] it was above 10 µM; in test [3] it was above 10 µM.

With `C[C@@H]1CC(=O)NN=C1c1ccc(F)c(F)c1`, the IC50 was > 10 µM (inactive) in test [1], above 10 µM in test [2] and above 10 µM in test [3].

Regarding `C[C@@H]1CC(=O)NN=C1c1ccc(N2CCOCC2)cc1`, the IC50 in test [1] is > 10 µM (inactive); in test [2] it was above 10 µM; in test [3], above 10 µM.

In the case of `CC(=O)Nc1ccc(C2=NNC(=O)C[C@H]2C)cc1`, the figures for the IC50 in test [1], in test [2] and in test [3] were > 10 µM (inactive), above 10 µM and above 10 µM, respectively.

In the case of `C[C@@H]1CC(=O)NN=C1c1ccc(Cl)cc1`, the IC50 is > 10 µM (inactive) in test [1], above 10 µM in test [2] and above 10 µM in test [3].

Regarding `C[C@@H]1CC(=O)NN=C1c1ccc(C2CCCCC2)cc1`, the results for the IC50 in test [1], in test [2] and in test [3] were > 10 µM (inactive), above 10 µM and above 10 µM, respectively.
